Test results taken from patent US5430058A, “Pharmaceutical compositions comprising hydroxamate derivatives for iron removal” (Yeda Research and Development Co. Ltd., priority 1993, dated 1995).
Values after ≈ are worked out from the molar mass of the structure shown. Where two headings read alike, the source gives them in different places.

Experiments:
[1] = Relative iron(III) binding efficiency by competition with EDTA; format: physicochemical; conditions: for rel. Fe binding (b): Table 2, relative to DFO = 1.16, 0.75 mM hydroxamate, 0.15 mM EDTA, 0.15 mM Fe3+ in aqueous methanol; for Pcoeff*Fe binding (a*b): product of relative partition coefficient and relative iron(III) binding; for Relative binding: Table 1, DFO = 100, competition with EDTA in aqueous MeOH
Protocol: c. The relative binding efficiencies of the reversed siderophores (0.75 mM reversed siderophore and 0.15 mM Fe^3+ in aqueous MeOH (MeOH-0.1N NaOAc) were incubated with EDTA (0.15 mM). After equilibration overnight, the fraction of siderophore- Fe^3+ complex present was determined at 430 nm.
(§1) The values for Pcoeff of free RSF ileun2 (the same as SF1ileu) and of leun2 and their respective iron(III) complexes were similar (not shown).

[2] = tested on: trophozoites of P. falciparum; test: Antimalarial activity (Table 2), [3H]-hypoxanthine incorporation; format: cell-based, Plasmodium falciparum; conditions: Plasmodium falciparum
Protocol: g. Bioassay of iron carrier antimalarial activity. The antimalarial activity was assayed by adding the compounds from concentrated stock solutions (in DMSO) to microcultures (24 wells, Costar) containing infected red cells (2.5% hematocrit and 2% parasitemia). The cultures were usually synchronized (4-7 hrs. windows) by incubation in 300 mM Ala, 10 mM TRIS-Cl in conjunction with gelatin flotation and used either at the trophozoite (1-2% parasitemia) or at the ring stage (4-6% parasitemia) of the erythrocyctic cycle. After the indicated time of incubation with drug and either previous to or after washing 3 times with 100 volumes growth medium, the cells were supplemented with 6 μCi of either [^3 H]-hypoxanthine or [^3 H]-Ileu (Amersham, England) per well and parasite growth assessed after 24-48 hours by harvesting the labelled cells onto glass-fiber filters (Tamar, Inc. Jerusalem) and counting of the radioactivity. […]

[3] = Partition between n-octanol and saline; format: physicochemical; conditions: for rel. Pcoeff (a): Table 2, relative to L-val-n1 = 1.0; for logP: Table 1, free ligand, read-out: Partition coefficient (converted)
Protocol: e. Partition coefficients were obtained by overnight equilibration of the free reversed siderophores between equal volumes of n-octanol and saline. The concentrations of the ligands in each phase were determined by adding excess iron(III) and measuring the ferric complexes at 430 nm.
as §1

normal red cells = test: Uptake of 59Fe-carrier complexes into normal red cells; format: cell-based, human
Protocol: (§2) k. Uptake of radioactive carrier-Fe complexes. DFO and the different SF derivatives were pre-complexed with iron by addition of concentrated stock solutions of 20 mg/ml carriers to ^59 FeCl3 (Amersham, England) in 0.5 ml of 150 mM NaCl, 10 mM Hepes at 3-5 molar excess of carrier for 1 hour at room temperature. To begin the flux, normal or parasitized red cells that had been washed 3 times in saline buffer and resuspended in the same buffer supplemented with 5% bovine serum albumin (BSA), 2.5 mM citrate, 2 mg/ml glucose were added to radioactive ^59 Fe-complexes at a final suspension of 20% hematocrit. After incubation at 37° C., 75 μl suspension was removed in duplicate aliquots for each time point, placed in plastic 15 ml test tube (Starstedt) and centrifuged 1 minute at 2,500 g. The supernatant was removed and the pellet immediately placed on ice. After all sampling was completed the pellets were washed twice in 15 ml of ice cold buffer containing 50 mM EDTA and lysed in distilled water. Radioactivity (Gamma emission, 700-1300 Kev) was counted and the cell number for each sample determined from hemoglobin absorption of the lysate at 410 nm.
Due to the fact that RSF's have markedly greater lipophilicity than DFO, they were expected to faster penetrate and therefore more effectively chelate intracellular iron after short exposure times. Penetration of RSF's into normal and infected red cells was estimated by monitoring uptake of the RSF's-^59 Fe(III) complexes into infected and uninfected cells and compared to DFO. In order to confirm actual uptake of Fe-RSF ileun2 rather than adsorption to the outer membrane, cells were thoroughly washed and lysates were subjected to 80,000g×20 min centrifugation. More than 90% of the total counts were found in the cytosol fraction (results not shown).
FIGS. 8a and 8b show uptake of Fe^59 -carrier complexes into normal and infected red cells. Uptake of ^59 -Fe-RSF (FIG. 8a) and ^59 Fe-DFO (FIG. 8b) into normal (open symbols) and infected (closed symbols) red cells (60% parasitemia, >90% trophozoites). The carriers were pre-complexed to ^59 FeCl3 at 4:1 ration in DMSO with 5 μM external FeCl3 (from methanolic stock solutions). The radioactive complexes were then added to 20% hematocrit cell suspensions and flux was measured. Specific activity was 485000 cpm/nmole and 369000 cpm/nmole for the RSF and DFO uptake experiments, respectively. Cell number was determined from hemoglobin absorption of lysate at 410 nm.

infected red cells = test: Uptake of 59Fe-carrier complexes into infected red cells; format: cell-based, human erythrocytes infected with P. falciparum
Protocol: as §2
Penetration of RSF's into normal and infected red cells was estimated by monitoring uptake of the RSF's-^59 Fe(III) complexes into infected and uninfected cells and compared to DFO. In order to confirm actual uptake of Fe-RSF ileun2 rather than adsorption to the outer membrane, cells were thoroughly washed and lysates were subjected to 80,000g×20 min centrifugation.
The carriers were pre-complexed to ^59 FeCl3 at 4:1 ration in DMSO with 5 μM external FeCl3 (from methanolic stock solutions). The radioactive complexes were then added to 20% hematocrit cell suspensions and flux was measured. […] Cell number was determined from hemoglobin absorption of lysate at 410 nm.

[4] = tested on: trophozoites of P. falciparum, strain ItG2G1; test: Antimalarial activity (Table 1), [3H]hypoxanthine incorporation; format: cell-based; conditions: Plasmodium falciparum, 48 h
Protocol: f. Parasite cultures. The P. falciparum strains used in the experiments: ItG2G1 (Brazil, provided by Dr. L. H. Miller), D6 (W. African, provided by Dr. A. J. M. Oduola) FCR-3 (Gambian, provided by Dr. J. B. Jensen) and W2 (Indochina, provided by Dr. A. J. M. Oduola), were grown in culture flasks of human erythrocytes by a modified version of Trager and Jensen's method as described by Silfen et al. ((1988) Biochem. Pharmacol. 37: 4269-4276)).
g. Bioassay of iron carrier antimalarial activity. The antimalarial activity was assayed by adding the compounds from concentrated stock solutions (in DMSO) to microcultures (24 wells, Costar) containing infected red cells (2.5% hematocrit and 2% parasitemia). The cultures were usually synchronized (4-7 hrs. windows) by incubation in 300 mM Ala, 10 mM TRIS-Cl in conjunction with gelatin flotation and used either at the trophozoite (1-2% parasitemia) or at the ring stage (4-6% parasitemia) of the erythrocyctic cycle. After the indicated time of incubation with drug and either previous to or after washing 3 times with 100 volumes growth medium, the cells were supplemented with 6 μCi of either [^3 H]-hypoxanthine or [^3 H]-Ileu (Amersham, England) per well and parasite growth assessed after 24-48 hours by harvesting the labelled cells onto glass-fiber filters (Tamar, Inc. Jerusalem) and counting of the radioactivity.
The antimalarial activity of the different chelators was initially evaluated on cultures of trophozoites which were exposed for 24 hours to different concentrations of chelators. Following that period, [^3 H]-hypoxanthine or [^3 H]-Ileu were added and 24 hours later the parasitemia and incorporation of label into macromolecular material was determined.

[5] = Extraction of iron from aqueous FeCl3/citrate into chloroform; format: physicochemical; conditions: 0.3 mM in chloroform vs 0.3 mM FeCl3, 0.3 mM citric acid, 40 mM TRIS, pH 6.9, overnight
Protocol: d. Extractions were performed by overnight equilibration of 0.3 mM chloroform solutions of reversed siderophore with aqueous solutions of 0.3 mM FeCl3, 0.3 mM citric acid, 40 mM TRIS, pH 6.9. The amount of iron taken up into the organic phase was determined by the absorption of the iron+complex at 430 nm. No iron uptake into chloroform solutions devoid of RSF was observed by ion chromatography.

[6] = amino acid side chain, Tanford/Segret's scale as given by Eisenberg 1984; cited from earlier work
[7] = trophozoites, 40 hours exposure, mean of 3-4 experiments, read-out: IC50 (c)

SMILES | rel. Fe binding (b) [1] | Pcoeff*Fe binding (a*b) [1] | IC50 ([2]; 40 h, read-out: IC50 (c)) | rel. Pcoeff (a) [3] | IC50 [2, 7] | Uptake kinetics compared with RSF-ileun2 (normal red cells) | Uptake kinetics compared with RSF-ileun2 (infected red cells) | rel. Fe binding (b) ([1]; listed as L-val n1) | Fe-binding affinity relative to DFO ([1]; percent that of DFO) | Pcoeff*Fe binding (a*b) ([1]; listed as L-val of n1 subfamily) | IC50 ([2]; discussion of Table 2, unit inferred, read-out: IC50) | IC50 [4] | Relative binding [1] | Extraction efficiency [5] | logP [3] | Hydrophobicity [6] | Pcoeff of free ligand vs iron(III) complex ([3]; not shown)
CC[C@@H](C)[C@@H](NC(=O)CCOCC(CC)(COCCC(=O)N[C@@H](C(=O)N(C)O)[C@H](C)CC)COCCC(=O)N[C@@H](C(=O)N(C)O)[C@H](C)CC)C(=O)N(C)O [(D--ileu) n=2] | 0.298 | 2.4 | 9 ± 3 µM | 8.2 |  |  |  |  |  |  |  |  |  |  |  |  | 
CC[C@H](C)[C@H](NC(=O)COCC(CC)(COCC(=O)N[C@H](C(=O)N(C)O)[C@@H](C)CC)COCC(=O)N[C@H](C(=O)N(C)O)[C@@H](C)CC)C(=O)N(C)O [(L--ileu) n=1] | 1.0 | 9.3 |  | 9.0 | 3 ± 1 µM |  |  |  |  |  |  |  |  |  |  |  | 
CCC(COCC(=O)N[C@@H](CC(C)C)C(=O)N(C)O)(COCC(=O)N[C@@H](CC(C)C)C(=O)N(C)O)COCC(=O)N[C@@H](CC(C)C)C(=O)N(C)O [(L--leu) n=1] | 0.23 | 3.86 |  | 17.0 | 5 ± 2 µM | Identical uptake kinetics | Identical uptake kinetics |  |  |  |  |  |  |  |  |  | 
CCC(COCC(=O)N[C@H](C(=O)N(C)O)C(C)C)(COCC(=O)N[C@H](C(=O)N(C)O)C(C)C)COCC(=O)N[C@H](C(=O)N(C)O)C(C)C [(L--val) n=1] | 1.0 | 1.0 |  | 1.0 | 4 ± 1 µM |  |  | 1 | 86% | 1 | 4 µM |  |  |  |  |  | 
CCC(COCCC(=O)N[C@H](C(=O)N(C)O)C(C)C)(COCCC(=O)N[C@H](C(=O)N(C)O)C(C)C)COCCC(=O)N[C@H](C(=O)N(C)O)C(C)C [(L--val) n=2] | 1.31 | 2.8 |  | 2.1 | 6 ± 2 µM |  |  |  |  |  |  |  |  |  |  |  | 
CCC(COCCC(=O)N[C@H](C)C(=O)N(C)O)(COCCC(=O)N[C@H](C)C(=O)N(C)O)COCCC(=O)N[C@H](C)C(=O)N(C)O [SF1--D--ala] | 1.25 | 0.37 | 70 ± 13 µM | 0.3 |  |  |  |  |  |  |  | 45 mg/L (≈ 69.2 µM) | 108 | 88 | -0.276 | 1.0 | 
CCC(COCCC(=O)N[C@@H](C)C(=O)N(C)O)(COCCC(=O)N[C@@H](C)C(=O)N(C)O)COCCC(=O)N[C@@H](C)C(=O)N(C)O [SF1--L--ala] | 1.25 | 0.37 | 62 ± 10 µM | 0.3 |  |  |  |  |  |  |  | 40 mg/L (≈ 61.5 µM) | 108 | 88 | -0.276 | 1.0 | 
CCC(COCCC(=O)N[C@@H](CC(C)C)C(=O)N(C)O)(COCCC(=O)N[C@@H](CC(C)C)C(=O)N(C)O)COCCC(=O)N[C@@H](CC(C)C)C(=O)N(C)O [SF1--L--leu] | 0.12 | 0.9 | 22 ± 4 µM | 7.4 |  |  |  |  |  |  |  | 17 mg/L (≈ 21.9 µM) | 10 | 35 | 1.1 | 3.5 | similar
CCC(COCCC(=O)N1CCC[C@H]1C(=O)N(C)O)(COCCC(=O)N1CCC[C@H]1C(=O)N(C)O)COCCC(=O)N1CCC[C@H]1C(=O)N(C)O [SFI--pro] | 0.16 | 0.06 | > 100 µM | 0.4 |  |  |  |  |  |  |  | > 100 mg/L | 14 | 38 | -0.187 | 1.5 | 
